Source: patent publication US10780184B2, “Fluorescent solid lipid nanoparticles composition and preparation thereof” (BRACCO IMAGING S.P.A., priority 2013, dated 2020)

Assays:
[1] = Photobleaching experiment, 785 nm laser radiation; assay type: physicochemical; conditions: aqueous medium, 37° C., 3 sec irradiation/1 sec dark repeated for 1 h
Experimental: A further advantage of the present invention is the improved photostability of the dye with respect to the free dye in water solution. An experiment was performed in aqueous medium by the exposition of free ICG solution and the ICG loaded SLNs suspension to a 785 nm laser radiation (see FIG. 2, Example 8). The fluorescence emissions were collected by NIR fluorescent imaging system (Pearl® Impulse system by LI-COR Biosciences). […] Then, the experiment was carried out in duplicate at 37° C. irradiating both samples for 3 sec and keeping the samples in the dark for 1 sec. This sequence was repeated in continuous for 1 h.
The photobleaching experiment was performed by the exposition of free ICG aqueous solution and the ICG loaded SLNs suspension to a 785 nm laser radiation The fluorescence emissions were collected by NIR fluorescent imaging system (Pearl Impulse system by LI-COR Biosciences).
Then, the experiment was carried out in duplicate at 37° C. irradiating both samples for 3 sec and keeping the samples in the dark for 1 sec. This sequence was repeated in continuous for 1 h.

[2] = UV-Vis spectra for J-aggregates evaluation; assay type: physicochemical; conditions: SLNs suspension up to 120 days, free ICG in aqueous solution up to 15 days
Experimental: In FIG. 4 (panel A, Example 7) there are reported the UV-Vis spectra of ICG-loaded SLNs suspension just after the formulation date and 90 and 120 days later. […] The absorbance at 800 nm is recovered at 96% with respect to the initial value. In addition, the fluorescence emission properties can be preserved by the incorporation of ICG in the SLNs over the observed period of time (data not shown).
UV-Vis spectra of ICG-loaded SLNs suspension, prepared as described in the example 4, were recorded after the end of the formulation date, 90 and 120 days later keeping the suspension at store condition. After 120 days the absorbance was recovered at 96% with respect to the initial value (FIG. 4 A).
A solution of ICG (0.14 mg/mL) was prepared in glucosate (5.5%) solution. The sample was diluted before the Uv-Vis analysis and the absorption behaviour was evaluated from 300 to 950 nm until 15 days (FIG. 4 B).

[3] = Optical properties (absorption and emission maxima, Stokes' shift); assay type: physicochemical; conditions: SLNs formulation (example 4) or H2O
Source text: Additional optical features (i.e. maximum absorption and emission wavelengths, Stokes' shifts) of ICG in aqueous medium and after incorporation in the SLNs are reported in Table E.

[4] = human recommended dose of 0.5 mg/kg, intravenous; cited from earlier work
[5] = tendency to aggregate; cited from earlier work

CC1(C)C(/C=C/C=C/C=C/C=C2/N(CCCCS(=O)(=O)[O-])c3ccc4ccccc4c3C2(C)C)=[N+](CCCCS(=O)(=O)[O-])c2ccc3ccccc3c21.[Na+] [ICG, Indocyanine Green]
fluorescence emission remaining, of the initial emission fluorescence efficiency [1]: slightly above zero
aggregates (J-aggregates) formation [2]: can aggregate in few days
A max wavelength (nm) [3]: 780 nm
Fluor. Emission λmax (nm) [3]: 809 nm
Stokes' shift [3]: 29
blood half-time [4]: around 3.0 minutes
time within which aqueous solution must be used [5]: ≤ 6 h
